Patent US20240150286A1, “PEROXISOME PROLIFERATOR-ACTIVATED RECEPTOR GAMMA (PPARy) LIGANDS AND METHODS OF USE AS TREATMENTS FOR INSULIN RESISTANCE, OBESITY, FATTY LIVER DISEASE, AND TYPE 2 DIABETES” (The Board of Regents of the University of Oklahoma, priority 2022, published 2024)

Tests used:
[1] = molecular target: T1, PPARγ ligand-binding domain (LBD) (Homo sapiens, UniProt P37231); test: In vitro competition binding assay (PolarScreen PPARγ-Competitor, fluorescence polarization)
T1 construct: purchased Thermo Fisher Scientific
T1 sequence (P37231 238-503 limits assumed): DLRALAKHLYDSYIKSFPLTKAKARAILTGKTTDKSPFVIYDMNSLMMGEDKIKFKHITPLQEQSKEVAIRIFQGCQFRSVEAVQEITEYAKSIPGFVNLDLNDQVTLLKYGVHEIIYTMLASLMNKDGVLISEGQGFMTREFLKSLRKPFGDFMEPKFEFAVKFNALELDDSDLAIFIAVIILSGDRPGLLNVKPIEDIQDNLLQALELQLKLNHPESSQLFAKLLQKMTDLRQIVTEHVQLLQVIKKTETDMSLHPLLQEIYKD
Method: The in vitro competition binding assays was performed using PolarScreen™ PPARγ-Competitor Assay Kit according to the manufacturer's instructions. Briefly, compounds at 2-fold titration serial concentrations were incubated with GST-tagged PPARγ ligand-binding domain (LBD, 34 nM) and Fluormone PPAR Green tracer (9 nM) for 4 hours in the dark at room temperature in a black 384-well assay plate (Corning Glass cat. no. 677). The florescence polarization value (mP) was measured at 485 nm (excitation) and at 535 nm (emission) using a microplate reader.

[2] = test system: PPARγ S273 phosphorylation; test: PPARγ S273 phosphorylation and phosphorylation-dependent genes in 3T3-L1 differentiated adipocytes; assay type: cell-based, mouse
Method: (§1) Total RNA (2 μg) was isolated from tissues or cells using TRIzol reagents (Life Technologies) and reverse transcribed using oligo d(T) primers (New England Biosystems) and SuperScript IV reverse transcription kit (Applied Biosystems). qPCR was performed in a CFX96 Touch Real-Time PCR detection system using SYBR Green mix (Applied Biosystems). The amplification program was as follows: initial denaturation at 95° C. for 15 min, followed by 40 cycles of 95° C. for 15 s, 60° C. for 1 min, and 40° C. for 30 s. Relative mRNA expression was determined by the ΔΔCt method normalized to TBP mRNA.

[3] = test system: adipose tissues (iWAT, eWAT, BAT) of DIO mice; test: Adipose tissue analyses in DIO mice (pS273 Western, qRT-PCR, UCP1, histology, CLS); assay type: in vivo, mouse
Method: (§2) C57BL/6J male mice were obtained from Jackson laboratory (Bar Harbor, ME) and maintained on a 12 h light (6:00 AM to 6:00 PM)—12 h dark (6:00 PM to 6:00 AM) cycle at an ambient temperature of 22±1° C. All animals had access to diet and water ad libitum. All procedures involving animals were approved by the Institutional Animal Care and Use Committee of the University of Oklahoma Health Science Center. All experiments were performed with age-matched male mice. The mice were fed a high-fat diet (HFD) (60% kcal fat, Bio-Serv, NJ, USA) starting from the age of 6 weeks until study end. […] Food intake was determined manually by measuring the amount of input food subtracting the amount of the food remaining in the food hopper and the crumbs on the bedding of the cage each day for three days during the 4th week of the treatment. Packed cell volume (PCV) was measured with blood drawn from tail on a LW Scientific E8 centrifuge (LW Scientific, Lawrenceville, Georgia, USA) microhematocrit centrifuge at the end of study. For all other measurements, the blood was drawn at the time of euthanization.
Liver, heart, bone, adipose tissues were dissected and immediately fixed in 4% paraformaldehyde (Sigma-Aldrich), paraffin embedded, and stained with hematoxylin and eosin. For Immunofluorescence staining, the eWAT and iWAT paraffin sections were incubated with primary antibody (rabbit polyclonal to F4/80 [1:500, Cat #: 70076], Cell Signaling Technology) overnight at 4° C. after deparaffinization. The slides were washed thrice with PBS with 0.2% Triton and then incubated in secondary antibody, Alexa 488 anti-rabbit (1:500, Jackson ImmunoResearch, PA) for 1.5 h at room temperature. Tissue sections were imaged on the Olympus Fluoview 1000 laser-scanning confocal microscope (Center Valley, PA).
as §1, with “mRNA. The sequences of primers used in this study were shown in Table 1 in U.S. Provisional Application Ser. No. 63/419,049, the entirety of which is incorporated herein by reference.” for “mRNA.”
Proteins were extracted with RIPA buffer containing protease and phosphatase inhibitors (Thermo) and then centrifuged for 10 min at 10,000 g. A 30 μg sample of protein was separated on a 10% SDS polyacrylamide gel and transferred to polyvinylidene-fluoride membrane for 1 h at 4° C. at 40 V. The membrane was blocked in TBS (10 mm Tris-HCl, pH 7.4, 150 mm NaCl) containing 5% non-fat dry milk for 1 h at room temperature and was probed with primary antibodies followed by the appropriate HRP-conjugated secondary antibodies (Anti-rabbit IgG, #7074, or Anti-mouse IgG, #7076, 1:5000 Cell Signaling Technology). The primary antibodies used were: anti-Ser-273 PPARγ (bs-4888R, Bioss Antibodies), anti-PPARγ antibody (sc-271392, Santa Cruz Biotechnology), anti-UCP1 (14670S, Cell Signaling Technology, Beverly, MA, USA).

[4] = test system: diet-induced obesity (DIO) mice; test: Body weight, body composition and indirect calorimetry in DIO mice; assay type: in vivo, mouse
Method: as §2
Body lean and fat composition was determined by EchoMRI test.
The mice were individually housed in chambers of a Promethion Core Monitoring system (Sable Systems, Las Vegas, NV, USA). After a 1-day acclimation period, their oxygen consumption and carbon dioxide production were measured for the next three consecutive days. The respiratory exchange ratio and energy expenditure were calculated using standard equations

liver of DIO mice = test: Liver steatosis in DIO mice (H&E histology, qRT-PCR); assay type: in vivo, mouse; details: vs vehicle
Method: as §2
Liver, heart, bone, adipose tissues were dissected and immediately fixed in 4% paraformaldehyde (Sigma-Aldrich), paraffin embedded, and stained with hematoxylin and eosin. For Immunofluorescence staining, the eWAT and iWAT paraffin sections were incubated with primary antibody (rabbit polyclonal to F4/80 [1:500, Cat #: 70076], Cell Signaling Technology) overnight at 4° C. after deparaffinization. […]
Total RNA (2 μg) was isolated from tissues or cells using TRIzol reagents (Life Technologies) and reverse transcribed using oligo d(T) primers (New England Biosystems) and SuperScript IV reverse transcription kit (Applied Biosystems). qPCR was performed in a CFX96 Touch Real-Time PCR detection system using SYBR Green mix (Applied Biosystems). […] Relative mRNA expression was determined by the ΔΔCt method normalized to TBP mRNA. […]

[5] = SVF of inguinal and epididymal adipose tissues, DIO mice
[6] = eWAT of DIO mice, 15 mg/kg i.p. daily 4 weeks

For Cc1c(C)n(Cc2ccc(-c3ccccc3C(=O)O)cc2)c2ccc(C(=O)NCc3cccc(O)c3)cc12 [WO95E, 4′-((5-((3-hydroxybenzyl)carbamoyl)-2,3-dimethyl-1H-indol-1-yl)methyl)-[1,1′-biphenyl]-2-carboxylic acid], the “IC50 fold lower than that of UHC1” value ([1]; WO95E vs UHC1) was “approximately 70 fold”, the IC50 ([1]; competition with Fluormone PPAR Green tracer, GST-PPARγ LBD 34 nM, read-out: half-maximum inhibitory concentration (IC50), binding to PPARγ LBD) was about 11 nM and the “mRNA levels of PPARγ phosphorylation-dependent genes (adiponectin, cycp2f2, Ddx-17, Rarres2, Selenbp1)” value ([2]; 3T3-L1, 10 μM, qRT-PCR) was “upregulation”. The “S273 phosphorylation of PPARγ” value ([2]; 3T3-L1 differentiated adipocytes, TNFα 10 ng/ml 1 h, compounds at 10 μM, Western blot) was “significantly inhibited”, the “PPARγ S273 phosphorylation in iWAT” value ([3]; DIO mice, 15 mg/kg i.p. daily 4 weeks, Western blot) was “markedly inhibited” and the “mRNA levels of browning/thermogenic genes (Prdm16, Cidea, Ppara, CPT1a, UCP1, Cox5b, PGC1α) in iWAT” value ([3]; DIO mice, 15 mg/kg i.p. daily 4 weeks, vs vehicle) was “significantly increased”. For the same compound, the “adipocyte size in eWAT and iWAT” value ([3]; DIO mice, H&E sections, vs vehicle) was “significantly smaller”, the “UCP1 protein in iWAT and eWAT” value ([3]; DIO mice, Western blotting) was “dramatic induction” and the “UCP1 protein in BAT” value ([3]; DIO mice, data not shown) was “an increase”. The “mRNA levels of thermogenic genes in BAT” value ([3]; DIO mice, data not shown) was “increased mRNA expression levels of most of these genes”, the “areas of crown-like structures (CLS) in iWAT and eWAT” value ([3]; DIO mice, vs vehicle) was “dramatically reduced” and the “mRNA levels of M2 macrophage markers (IL4, IL10, Mg1I)” value [3, 5] was “up-regulated or unchanged”. The “mRNA levels of pan-macrophage markers (CD68, F4/80)” value [3, 5] was “significantly decreased”, the “genes involved in lipogenesis or adipogenesis” value [3, 6] was “inhibited” and the “mRNA levels of S273 phosphorylation-repressed genes (Adiponectin, Adipsin, selenbp1, Car3, Ddx-17, Acyl, Rarres2, Cidec)” value [3, 6] was “up-regulated”. The “mRNA levels of proinflammatory M1 mediators (TNFα, IL1b, IL-6, mcp-1)” value ([3]; iWAT and eWAT, DIO mice) was “down-regulated”, the body weight ([4]; DIO mice on HFD, 15 mg/kg i.p. daily 4 weeks) was “reduced body weight” and the “fat mass (EchoMRI)” value ([4]; DIO mice, 15 mg/kg i.p. daily) was “significant decrease”. The “lean mass (EchoMRI)” value ([4]; DIO mice, 15 mg/kg i.p. daily) was “no noticeable change”, the daily food intake ([4]; DIO mice, 4th week of treatment, vs vehicle) was “same amount of daily food intake” and the “average oxygen consumption (VO2)” value ([4]; DIO mice, indirect calorimetry after 4-week treatment) was “higher”. For the same compound, the mean energy expenditure ([4]; DIO mice, indirect calorimetry, vs vehicle) was “significantly heightened”, the “average carbon dioxide production (VCO2)” value ([4]; DIO mice, indirect calorimetry, p value 0.08 for daytime) was “increased” and the “respiratory exchange ratio (RER)” value ([4]; DIO mice, vs vehicle, data not shown) was “similar”. For the same compound, the “overall activity (distance)” value ([4]; DIO mice, difference statistically insignificant) was “upward trend”, the “number of lipid droplets in the liver” value (liver of DIO mice; H&E) was “markedly reduced” and the “expression levels of PEPCK and G6PC in liver” value (liver of DIO mice) was “significantly decreased”. The “lipogenic genes FASN, SCD-1, ACC in liver” value (liver of DIO mice) was “down-regulated”.
